We go through one compound from patent publication US20030191347A1 (priority 2002, published 2003).

The series can be described thus: dissolution in water. It is filed as physicochemical. The conditions noted are these: stated in words only, no figure.

Structures are written as SMILES.

Regarding `COc1ccc(C(CN(C)C)C2(O)CCCCC2)cc1` (stereo not shown) [venlafaxine base, 1-[2-(dimethylamino)-1-(4-methoxyphenyl)ethyl]cyclohexanol], the dissolution in water entry is given as “slow”.
